The target in one assay is T1, BRD4 BD2 (Homo sapiens, UniProt O60885).
T1 construct: made in house
Kind of assay: AlphaScreen binding assay, BRD4 Bromodomain 2. The method in brief: (§1)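 Compound dilution series were mixed with His-tagged BRD4 bromodomain and biotinylated tetra-acetylated H4 (1-21) peptide at pH 7.3 (BD1 and peptide at 50 nM, BD2 and peptide at 100 nM). Donor and acceptor beads were then added, and plates were equilibrated at least 1 h before reading. IC50 values were fitted with a four-parameter logistic model.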
Background: In Alpha technology, singlet oxygen from a donor bead excites a nearby acceptor bead.

A further assay concerns MV4-11 cells. Kind of assay: Oncology cell growth assay (3-day proliferation, CellTiter-Glo). Format: cell-based. Particulars: Homo sapiens, AML cell line MV4-11, 72 hours, compounds grouped by IC50 range, read-out: MV4-11 IC50 (inhibition of proliferation, gIC50). An outline of the steps: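 72 h, 37° C, 5% CO2; MV4-11, 3000 cells/well, RPMI 1640 + 10% FBS. Compound final 10, 3.3, 1.1, 0.37, 0.12, 0.041, 0.013, 0.0045 μM. Readout CellTiter-Glo luminescence; gIC50 by 4-parameter logistic fit, normalised to DMSO and no-cell background.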
In general terms: Cellular ATP, detected with luciferase, serves as a proxy for viable cell number.

Another assay concerns the target T2, BRD4 BD1 (Homo sapiens, UniProt O60885).
T2 construct: made in house
Kind of assay: AlphaScreen binding assay, BRD4 Bromodomain 1. An outline of the steps: as §1

Like-named read-outs stand apart in the source and are kept apart here. Some results are limits rather than exact numbers.

Regarding `CCC(=O)N1c2ccc(-c3ccc(S(C)(=O)=O)cc3)cc2N(C(=O)c2ccco2)C[C@@H]1C` [Example I-365], the IC50 on BRD4 BD2 was under 50 nM; with MV4-11 cells (MV4-11, 72 h), over 500 nM; on BRD4 BD1, 1000 to 10000 nM.

As for `CC(=O)N1c2ccc(-c3ccc(C(=O)NCc4ncco4)cc3)cc2N(C(=O)OC(C)C)C[C@@H]1C` [Example I-584], the IC50 lay within 50 to 500 nM on BRD4 BD2; 100 to 500 nM in the assay with MV4-11 cells (MV4-11, 72 h); 100 to 1000 nM at BRD4 BD1.

As for `CC(=O)N1c2ccc(-c3cnn(C4CC4)c3)cc2N(C(=O)OC2COC2)C[C@@H]1C` [Example I-997], the IC50 at BRD4 BD2 lay within 50 to 500 nM; with MV4-11 cells (MV4-11, 72 h), 100 to 500 nM; on BRD4 BD1 it was 100 to 1000 nM.

In the case of `CC(=O)N1c2cc(F)c(-c3ccc(S(C)(=O)=O)cc3)cc2N(C(=O)OC(C)C)C[C@@H]1C` [Example I-196, Isopropyl (S)-4-acetyl-6-fluoro-3-methyl-7-(4-(methylsulfonyl)phenyl)-3,4-dihydroquinoxaline-1(2H)-carboxylate], the IC50 was over 500 nM on BRD4 BD2; over 500 nM in the assay on MV4-11 cells (MV4-11, 72 h); 1000 to 10000 nM at BRD4 BD1.

Regarding `CC(=O)N1c2ccc(-c3ccc(S(=O)(=O)C4CC4)cc3)cc2N(C(=O)OC2CCCCC2)C[C@@H]1C` [Example I-1215], the IC50 at BRD4 BD2 lay in the range of 50 to 500 nM; with MV4-11 cells (MV4-11, 72 h) it was 100 to 500 nM; at BRD4 BD1, 100 to 1000 nM.

Take `CNS(=O)(=O)c1cccc(-c2ccc3c(c2)N(C(=O)C2CCC2)C[C@H](C)N3C(C)=O)c1` [Example I-1105]: the IC50 at BRD4 BD2 was 50 to 500 nM; in the assay on MV4-11 cells (MV4-11, 72 h) it was over 500 nM; on BRD4 BD1, 1000 to 10000 nM.

In the case of `CNC(=O)N1c2ncc(-c3cnn(C4CC4)c3)cc2N(C(=O)OC(C)C)C[C@@H]1C` [Example I-194, (S)-isopropyl 7-(1-cyclopropyl-1H-pyrazol-4-yl)-3-methyl-4-(methylcarbamoyl)-3,4-dihydropyrido[2,3-b]pyrazine-1(2H)-carboxylate], the IC50 on BRD4 BD2 was 50 to 500 nM; in the assay with MV4-11 cells, over 500 nM; on BRD4 BD1, 1000 to 10000 nM.

`CC(=O)N1c2ccc(-c3ccc(S(C)(=O)=O)cc3)cc2N(C(=O)OC2CCC2)C[C@@H]1C` [Example I-493]: the IC50 on BRD4 BD2 fell in the range of 50 to 500 nM; with MV4-11 cells (MV4-11, 72 h), 100 to 500 nM; at BRD4 BD1, 100 to 1000 nM.

For `CC(=O)N1c2ccc(-c3ccc(NS(C)(=O)=O)c(F)c3)cc2N(C(=O)C2CC2)C[C@@H]1C` [Example I-1180], the IC50 at BRD4 BD2 was 50 to 500 nM; with MV4-11 cells (MV4-11, 72 h), over 500 nM; on BRD4 BD1 it was 100 to 1000 nM.

For the compound `CC(=O)N1c2ccc(-c3cccc(S(N)(=O)=O)c3)cc2N(C(=O)C2CC2)C[C@@H]1C` [Example I-1039], the IC50 on BRD4 BD2 was under 50 nM; in the assay with MV4-11 cells (MV4-11, 72 h) it was 100 to 500 nM; on BRD4 BD1, 1000 to 10000 nM.

On to `CC(=O)N1c2ccc(-c3cnn(C4CC4)c3)cc2N(c2nc3ccccc3o2)C[C@@H]1C` [Example I-44, (S)-1-(4-(benzo[d]oxazol-2-yl)-6-(1-cyclopropyl-1H-pyrazol-4-yl)-2-methyl-3,4-dihydroquinoxalin-1(2H)-yl)ethanone], for which the IC50 lay within 50 to 500 nM on BRD4 BD2; 100 to 500 nM in the assay on MV4-11 cells (MV4-11, 72 h); 100 to 1000 nM at BRD4 BD1.

For `CC(=O)N1c2ccc(-c3ccc(S(C)(=O)=O)c(F)c3)cc2N(C(=O)OC2CCOCC2)C[C@@H]1C` [Example I-1242], the IC50 was 50 to 500 nM at BRD4 BD2; over 500 nM in the assay with MV4-11 cells (MV4-11, 72 h); 1000 to 10000 nM at BRD4 BD1.

For `CC(=O)N1c2ccc(-c3cccc(C(=O)N4CCOCC4)c3)cc2N(C(=O)c2ccco2)C[C@@H]1C` [Example I-838], the IC50 is under 50 nM on BRD4 BD2; 100 to 500 nM in the assay with MV4-11 cells (MV4-11, 72 h); 100 to 1000 nM on BRD4 BD1.

Take `CC(=O)N1c2ccc(-c3cc(N4CCCS4(=O)=O)cc(C(F)(F)F)c3)cc2N(C(=O)OC(C)C)C[C@@H]1C` [Example I-1166]: the IC50 on BRD4 BD2 was 50 to 500 nM; in the assay with MV4-11 cells (MV4-11, 72 h), over 500 nM; at BRD4 BD1, 100 to 1000 nM.

For the compound `CCS(=O)(=O)c1cccc(-c2ccc3c(c2)N(C(=O)OC(C)C)C[C@H](C)N3C(C)=O)c1` [Example I-1093], the IC50 at BRD4 BD2 fell in the range of 50 to 500 nM; in the assay with MV4-11 cells (MV4-11, 72 h), 100 to 500 nM; on BRD4 BD1, 100 to 1000 nM.

As to `CC(=O)N1c2ccc(-c3cn(C)nn3)cc2N(C(=O)c2ccco2)C[C@@H]1C` [Example I-420], the IC50 is 50 to 500 nM on BRD4 BD2; over 500 nM in the assay with MV4-11 cells (MV4-11, 72 h); 1000 to 10000 nM at BRD4 BD1.

As for `CCS(=O)(=O)c1cccc(-c2ccc3c(c2)N(C(=O)OC2CCOCC2)C[C@H](C)N3C(C)=O)c1` [Example I-1246], the IC50 on BRD4 BD2 was 50 to 500 nM; in the assay with MV4-11 cells (MV4-11, 72 h), 100 to 500 nM; at BRD4 BD1 it was 100 to 1000 nM.

For the compound `COC(=O)N1c2ccc(-c3cnn(C4CC4)c3)cc2N(C(=O)OC(C)C)C[C@@H]1C` [Example I-43, (S)-4-isopropyl 1-methyl 6-(1-cyclopropyl-1H-pyrazol-4-yl)-2-methyl-2,3-dihydroquinoxaline-1,4-dicarboxylate], the IC50 is 50 to 500 nM at BRD4 BD2; over 500 nM in the assay on MV4-11 cells (MV4-11, 72 h); 100 to 1000 nM on BRD4 BD1.

`CC(=O)N1c2ccc(-c3ccc4nccn4c3)cc2N(C(=O)c2ccco2)C[C@@H]1C` [Example I-382]: the IC50 at BRD4 BD2 is over 500 nM; in the assay on MV4-11 cells (MV4-11, 72 h), 100 to 500 nM; at BRD4 BD1 it was 1000 to 10000 nM.

Turning to `CC(=O)N1c2ccc(-c3cnn(CC(=O)N4CCC4)c3)cc2N(C(=O)OC(C)C)C[C@@H]1C` [Example I-667], the IC50 at BRD4 BD2 fell in the range of 50 to 500 nM; in the assay with MV4-11 cells (MV4-11, 72 h) it was 100 to 500 nM; at BRD4 BD1 it was 100 to 1000 nM.

`CC(C)OC(=O)N1C[C@H](C)N(C(=O)C2CC2)c2ccc(-c3cnn(CC(N)=O)c3)cc21` [Example I-310]: the IC50 at BRD4 BD2 is 50 to 500 nM; in the assay with MV4-11 cells (MV4-11, 72 h), over 500 nM; at BRD4 BD1, 100 to 1000 nM.

In the case of `CC(=O)N1c2ccc(-c3cnn(CC(=O)N4CCOCC4)c3)cc2N(C(=O)OC(C)C)C[C@@H]1C` [Example I-654], the IC50 fell in the range of 50 to 500 nM on BRD4 BD2; 100 to 500 nM in the assay on MV4-11 cells (MV4-11, 72 h); 100 to 1000 nM on BRD4 BD1.

With `CC(=O)N1c2ccc(-c3ccc(C(=O)N4CC[C@H](N(C)C)C4)cc3)cc2N(C(=O)OC(C)C)C[C@@H]1C` [Example I-543], the IC50 on BRD4 BD2 is under 50 nM; in the assay on MV4-11 cells (MV4-11, 72 h), under 100 nM; at BRD4 BD1, under 100 nM.

With `CC(=O)N1c2ccc(-c3ccc(NS(C)(=O)=O)c(F)c3)cc2N(C(=O)C2CCC2)C[C@@H]1C` [Example I-1181], the IC50 was 50 to 500 nM on BRD4 BD2; over 500 nM with MV4-11 cells (MV4-11, 72 h); 1000 to 10000 nM on BRD4 BD1.

`CC(=O)N1c2ccc(-c3ccc(N4CCOCC4)cc3)cc2N(C(=O)OC(C)C)C[C@@H]1C` [Example I-1061]: the IC50 at BRD4 BD2 was 50 to 500 nM; with MV4-11 cells (MV4-11, 72 h), over 500 nM; on BRD4 BD1, 1000 to 10000 nM.

As to `CC(=O)N1c2ccc(-c3cnn(C4CC4)c3)cc2N(C(=O)Oc2cccc(C#N)c2)C[C@@H]1C` [Example I-501], the IC50 is 50 to 500 nM at BRD4 BD2; 100 to 500 nM in the assay on MV4-11 cells (MV4-11, 72 h); 100 to 1000 nM on BRD4 BD1.

Regarding `CC(=O)N1c2ccc(-c3ccc(NS(C)(=O)=O)cc3)cc2N(C(=O)Oc2ccccn2)C[C@@H]1C` [Example I-1316], the IC50 on BRD4 BD2 was 50 to 500 nM; in the assay with MV4-11 cells (MV4-11, 72 h), 100 to 500 nM; on BRD4 BD1 it was 100 to 1000 nM.

For `CC(=O)N1c2ccc(-c3ccc(S(C)(=O)=O)cc3)cc2N(c2n[nH]c3ccccc23)C[C@@H]1C` [Example I-94, (S)-1-(4-(1H-indazol-3-yl)-2-methyl-6-(4-(methylsulfonyl)phenyl)-3,4-dihydroquinoxalin-1 (2H)-yl)ethan-1-one], the IC50 on BRD4 BD2 was 50 to 500 nM; in the assay with MV4-11 cells (MV4-11, 72 h) it was under 100 nM; at BRD4 BD1, 100 to 1000 nM.

(Values after patent US10703764B2, “Benzopiperazine compositions as BET bromodomain inhibitors” (FORMA Therapeutics, Inc., priority 2013, dated 2020).)
